# Test results published in patent publication US20190116791A1, “USE OF SAFENERS WITH PPO INHIBITOR HERBICIDES” (priority 2016, published 2019).
# Several values for one entry are separate records, joined by “and”; a condition that tells them apart may be missing. Equal values may be shown once.
# Columns and labels:
# wheat variety “Jagger” = assay: Percent wheat injury, visual rating 0-100%, greenhouse, post-emergence spray; conditions: for Injury / Percent injury on wheat, Jagger 3 DAT / Percent injury on wheat, Jagger 7 DAT / Percent injury on wheat, Jagger 14 DAT: Table 4; for Injury: Jagger, time not stated; for Percent wheat injury, JAGGER 3 DAT / Percent wheat injury, JAGGER 7 DAT / Percent wheat injury, JAGGER 14 DAT: Table 7 Test 1, tank-mix
# [1] = tested on: wheat specie “Yellowstone”; assay: as above; conditions: for Percent wheat injury 3 DAT / Percent wheat injury 7 DAT / Percent wheat injury 14 DAT / Injury: Yellowstone; for Injury / Percent injury on wheat, Yellowstone 3 DAT / Percent injury on wheat, Yellowstone 7 DAT / Percent injury on wheat, Yellowstone 14 DAT: Table 4; for Injury: time not stated; for Percent wheat injury, YELLOWSTONE (1) 3 DAT / Percent wheat injury, YELLOWSTONE (1) 7 DAT / Percent wheat injury, YELLOWSTONE (1) 14 DAT: Table 7 Test 1; for Percent wheat injury, YELLOWSTONE (1) 3 DAT / Percent wheat injury, YELLOWSTONE (1) 7 DAT / Percent wheat injury, YELLOWSTONE (1) 14 DAT / Percent wheat injury, YELLOWSTONE (2) 3 DAT / Percent wheat injury, YELLOWSTONE (2) 7 DAT / Percent wheat injury, YELLOWSTONE (2) 14 DAT: tank-mix; for Percent wheat injury, YELLOWSTONE (2) 3 DAT / Percent wheat injury, YELLOWSTONE (2) 7 DAT / Percent wheat injury, YELLOWSTONE (2) 14 DAT: Table 7 Test 2
# Velvetleaf = assay: Percent weed control, 0 to 100% rating system; assay type: in vivo; conditions: Table 6
# Method: (§1) Percent weed control was determined by a method similar to the 0 to 100% rating system as described above and reproduced below for easy reference. The same weed control rating system also can be found such as in “Research Methods in Weed Science,” 2nd ed., B. Truelove, Ed.; Southern Weed Science Society; Auburn University, Auburn, Ala., 1977.
# Morningglory = assay: Percent weed control, 0 to 100% rating system; assay type: in vivo; conditions: Table 6
# Method: as §1
# [2] = carfentrazone-ethyl at 50 g, safened treatment as tank-mix or premix
# [3] = Table 2, carfentrazone-ethyl 25 g ai/ha
# [4] = Table 3, carfentrazone-ethyl 50 g ai/ha
# [5] = fluthiacet-methyl 5.6 g ai/ha, 3 DAT
# [6] = fluthiacet-methyl 11.2 g ai/ha, 3 DAT
smiles,measurement,setting,value
"CCOC(=O)C(Cl)Cc1cc(-n2nc(C)n(C(F)F)c2=O)c(F)cc1Cl (centres unmarked) [Carfentrazone-ethyl, carfentrazone-ethyl]",Injury,wheat variety “Jagger”; carfentrazone-ethyl at 25 g,> 35%
same,Injury,wheat variety “Jagger”; [2],> 40%
same,"Percent injury on wheat, Jagger 3 DAT",wheat variety “Jagger”; carfentrazone-ethyl 25 g ai/ha,36%
same,"Percent injury on wheat, Jagger 7 DAT",wheat variety “Jagger”; carfentrazone-ethyl 25 g ai/ha,34%
same,"Percent injury on wheat, Jagger 14 DAT",wheat variety “Jagger”; carfentrazone-ethyl 25 g ai/ha,25%
same,"Percent injury on wheat, Jagger 3 DAT",wheat variety “Jagger”; carfentrazone-ethyl 50 g ai/ha,43%
same,"Percent injury on wheat, Jagger 7 DAT",wheat variety “Jagger”; carfentrazone-ethyl 50 g ai/ha,38%
same,"Percent injury on wheat, Jagger 14 DAT",wheat variety “Jagger”; carfentrazone-ethyl 50 g ai/ha,30%
same,Percent wheat injury 3 DAT,"[1]; Table 2, carfentrazone-ethyl 25 g ai/ha, 3 DAT",34% and 34 (A) %
same,Percent wheat injury 3 DAT,"[1]; Table 2, carfentrazone-ethyl 25 g ai/ha, 3 DAT, listed as carfentrazone-ethyl",34%
same,Percent wheat injury 7 DAT,[1]; [3],28 (A) %
same,Percent wheat injury 14 DAT,[1]; [3],15 (A) %
same,Percent wheat injury 3 DAT,"[1]; Table 3, carfentrazone-ethyl 50 g ai/ha, 3 DAT",43% and 43 (A) %
same,Percent wheat injury 7 DAT,[1]; [4],36 (A) %
same,Percent wheat injury 14 DAT,[1]; [4],20 (A) %
same,Injury,[1]; carfentrazone-ethyl at 25 g,> 35%
same,Injury,[1]; [2],> 40%
same,"Percent injury on wheat, Yellowstone 3 DAT","[1]; carfentrazone-ethyl 25 g ai/ha, 3 DAT",38%
same,"Percent injury on wheat, Yellowstone 7 DAT",[1]; carfentrazone-ethyl 25 g ai/ha,34%
same,"Percent injury on wheat, Yellowstone 14 DAT",[1]; carfentrazone-ethyl 25 g ai/ha,24%
same,"Percent injury on wheat, Yellowstone 3 DAT","[1]; carfentrazone-ethyl 50 g ai/ha, 3 DAT",44%
same,"Percent injury on wheat, Yellowstone 7 DAT",[1]; carfentrazone-ethyl 50 g ai/ha,39%
same,"Percent injury on wheat, Yellowstone 14 DAT",[1]; carfentrazone-ethyl 50 g ai/ha,28%
same,"Percent weed control, Velvetleaf 3 DAT",Velvetleaf; carfentrazone-ethyl 25 g ai/ha,90 (A) %
same,"Percent weed control, Velvetleaf 7 DAT",Velvetleaf; carfentrazone-ethyl 25 g ai/ha,100%
same,"Percent weed control, Velvetleaf 3 DAT",Velvetleaf; carfentrazone-ethyl 50 g ai/ha,90 (A) %
same,"Percent weed control, Velvetleaf 7 DAT",Velvetleaf; carfentrazone-ethyl 50 g ai/ha,100%
same,"Percent weed control, Morningglory 3 DAT",Morningglory; carfentrazone-ethyl 25 g ai/ha,90 (A) %
same,"Percent weed control, Morningglory 7 DAT",Morningglory; carfentrazone-ethyl 25 g ai/ha,100 (A) %
same,"Percent weed control, Morningglory 3 DAT",Morningglory; carfentrazone-ethyl 50 g ai/ha,90 (A) %
same,"Percent weed control, Morningglory 7 DAT",Morningglory; carfentrazone-ethyl 50 g ai/ha,100 (A) %
"COC(=O)CSc1cc(/N=c2\sc(=O)n3n2CCCC3)c(F)cc1Cl [F-M, fluthiacet-methyl]","Percent wheat injury, JAGGER 3 DAT",wheat variety “Jagger”; fluthiacet-methyl 5.6 g ai/ha,6%
same,"Percent wheat injury, JAGGER 7 DAT",wheat variety “Jagger”; fluthiacet-methyl 5.6 g ai/ha,8%
same,"Percent wheat injury, JAGGER 14 DAT",wheat variety “Jagger”; fluthiacet-methyl 5.6 g ai/ha,10%
same,"Percent wheat injury, JAGGER 3 DAT",wheat variety “Jagger”; fluthiacet-methyl 11.2 g ai/ha,35%
same,"Percent wheat injury, JAGGER 7 DAT",wheat variety “Jagger”; fluthiacet-methyl 11.2 g ai/ha,35%
same,"Percent wheat injury, JAGGER 14 DAT",wheat variety “Jagger”; fluthiacet-methyl 11.2 g ai/ha,19%
same,"Percent wheat injury, YELLOWSTONE (1) 3 DAT",[1]; [5],12%
same,"Percent wheat injury, YELLOWSTONE (1) 7 DAT",[1]; fluthiacet-methyl 5.6 g ai/ha,12%
same,"Percent wheat injury, YELLOWSTONE (1) 14 DAT",[1]; fluthiacet-methyl 5.6 g ai/ha,12%
same,"Percent wheat injury, YELLOWSTONE (1) 3 DAT",[1]; [6],36%
same,"Percent wheat injury, YELLOWSTONE (1) 7 DAT",[1]; fluthiacet-methyl 11.2 g ai/ha,34%
same,"Percent wheat injury, YELLOWSTONE (1) 14 DAT",[1]; fluthiacet-methyl 11.2 g ai/ha,34%
same,"Percent wheat injury, YELLOWSTONE (2) 3 DAT",[1]; [5],16%
same,"Percent wheat injury, YELLOWSTONE (2) 7 DAT",[1]; fluthiacet-methyl 5.6 g ai/ha,11%
same,"Percent wheat injury, YELLOWSTONE (2) 14 DAT",[1]; fluthiacet-methyl 5.6 g ai/ha,12%
same,"Percent wheat injury, YELLOWSTONE (2) 3 DAT",[1]; [6],40%
same,"Percent wheat injury, YELLOWSTONE (2) 7 DAT",[1]; fluthiacet-methyl 11.2 g ai/ha,36%
same,"Percent wheat injury, YELLOWSTONE (2) 14 DAT",[1]; fluthiacet-methyl 11.2 g ai/ha,25%
O=C1OC(=O)c2cccc3cccc1c23 [naphthalic anhydride],wheat injury in the presence of safener(s),"[1]; text on Tables 2 and 3, safener applied with carfentrazone-ethyl, regardless of rate (25 or 50 g), 3 DAT",greater than 25%
